ChEMBL document CHEMBL1201862, “PubChem BioAssay data set” (2004)
Calls of active or inactive are those of the source.

Tests used:
[1] = blockers of HIV-1 ZM109 envelope-driven cell-cell fusion – HeLa effector, CEM target cells, luciferase, cherry-pick, dose response (AID 652058); assay type: functional, cell-based;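 note: luciferase signal from HIV-1 Env mediated cell-cell fusion of effector and target cells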
[2] = HIV-1 AD8 envelope cell-cell fusion blockers – cherry-pick, dose response (AID 652062); assay type: functional, cell-based;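 note: luciferase signal from cell-cell fusion driven by HIV-1 clade B AD8 Env; potency is for inhibitors of fusion seen as a drop in luminescence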
[3] = blockers of HIV-1 envelope-mediated cell-cell fusion – cherry-pick, dose response (AID 652057); assay type: functional, cell-based
[4] = off-target signal loss in HeLa-CEM21 co-culture – HeLa F-luc CTL cells, cherry-picked, counter-screen for HIV-1 Env fusion inhibitor project, dose response (AID 652040); assay type: functional, cell-based;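 note: potency for signal decrease marking cytotoxic or nonspecific inhibition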
Cytochrome P450 1A2 = target: T1, Cytochrome P450 1A2 (Homo sapiens, UniProt P05177);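 note: PubChem cytochrome P450 panel assay, CYP1A2 panel member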
T1 sequence (P05177 whole entry): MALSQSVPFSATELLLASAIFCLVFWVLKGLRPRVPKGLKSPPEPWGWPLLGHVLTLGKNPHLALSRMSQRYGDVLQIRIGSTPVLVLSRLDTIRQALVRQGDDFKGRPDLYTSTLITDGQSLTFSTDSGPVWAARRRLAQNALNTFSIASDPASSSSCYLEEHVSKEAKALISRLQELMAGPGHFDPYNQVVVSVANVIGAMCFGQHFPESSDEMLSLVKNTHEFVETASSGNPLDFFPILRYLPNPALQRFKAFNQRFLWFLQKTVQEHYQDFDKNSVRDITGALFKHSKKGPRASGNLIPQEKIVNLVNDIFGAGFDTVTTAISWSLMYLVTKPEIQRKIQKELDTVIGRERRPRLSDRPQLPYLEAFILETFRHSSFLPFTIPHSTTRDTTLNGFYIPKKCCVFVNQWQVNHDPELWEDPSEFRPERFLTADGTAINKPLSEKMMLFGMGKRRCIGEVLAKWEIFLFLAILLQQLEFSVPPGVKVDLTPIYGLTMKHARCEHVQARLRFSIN

Cytochrome P450 2D6 = Cytochrome P450 2D6 (Homo sapiens, UniProt P10635);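 note: CYP2D6 member of a cytochrome P450 panel assay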
[5] = target: Induced myeloid leukemia cell differentiation protein Mcl-1 (Homo sapiens, UniProt Q07820); assay type: functional
Genome polyprotein = Genome polyprotein (dengue virus type 2, UniProt P29990); assay: flavivirus cap methylation enzyme inhibition – biochemical, confirmation dose response, primary screen (AID 588689); assay type: functional
[6] = target: T2, Carboxy-terminal domain RNA polymerase II polypeptide A small phosphatase 1 (Homo sapiens, UniProt Q9GZU7); assay: CTDSP1 inhibitors, concentration-response, biochemical, absorbance readout, ultra-high-throughput screen actives (AID 540297); assay type: functional
T2 sequence (Q9GZU7 whole entry): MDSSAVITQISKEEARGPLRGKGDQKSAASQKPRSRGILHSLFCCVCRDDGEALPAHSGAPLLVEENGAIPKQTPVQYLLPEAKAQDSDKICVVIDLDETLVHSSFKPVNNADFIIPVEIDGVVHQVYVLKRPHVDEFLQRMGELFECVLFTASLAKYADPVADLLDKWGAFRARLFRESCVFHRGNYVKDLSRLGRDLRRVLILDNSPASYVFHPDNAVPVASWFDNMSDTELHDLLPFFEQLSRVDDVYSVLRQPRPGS

[7] = target: DNA (cytosine-5)-methyltransferase 1 (Homo sapiens, UniProt P26358); assay: inhibition of DNA methylation by DNMT1 – biochemical, fluorescent molecular beacon, confirmation (AID 602386); assay type: functional
[8] = target: T3, Trace amine-associated receptor 1 (Homo sapiens, UniProt Q96RJ0); assay: Counterscreen for agonists of the human trace amine associated receptor 1 (hTAAR1): Fluorescence-based cell-based high throughput dose response assay to identify hTAAR1 agonist that also desensitize TAAR1 receptor response.; assay type: functional
T3 sequence (Q96RJ0 whole entry): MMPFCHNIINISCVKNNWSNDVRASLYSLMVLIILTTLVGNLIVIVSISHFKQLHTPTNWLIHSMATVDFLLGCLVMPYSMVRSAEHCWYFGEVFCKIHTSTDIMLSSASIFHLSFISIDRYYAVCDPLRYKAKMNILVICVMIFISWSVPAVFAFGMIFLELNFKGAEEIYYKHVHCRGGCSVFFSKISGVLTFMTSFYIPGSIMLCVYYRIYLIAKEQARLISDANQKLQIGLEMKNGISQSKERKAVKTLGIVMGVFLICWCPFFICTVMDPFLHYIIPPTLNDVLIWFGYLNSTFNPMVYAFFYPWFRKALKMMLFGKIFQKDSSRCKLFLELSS

[9] = target: T3, Trace amine-associated receptor 1; assay: Fluorescence-based cell-based high throughput dose response assay to identify agonists of the human trace amine associated receptor 1 (TAAR1).; assay type: functional
cells [10] = assay type: functional, cell-based
cells [11] = assay type: functional, cell-based; remark: listed apart in the source

Genome polyprotein, sequence (P29990 2492-3391 limits assumed): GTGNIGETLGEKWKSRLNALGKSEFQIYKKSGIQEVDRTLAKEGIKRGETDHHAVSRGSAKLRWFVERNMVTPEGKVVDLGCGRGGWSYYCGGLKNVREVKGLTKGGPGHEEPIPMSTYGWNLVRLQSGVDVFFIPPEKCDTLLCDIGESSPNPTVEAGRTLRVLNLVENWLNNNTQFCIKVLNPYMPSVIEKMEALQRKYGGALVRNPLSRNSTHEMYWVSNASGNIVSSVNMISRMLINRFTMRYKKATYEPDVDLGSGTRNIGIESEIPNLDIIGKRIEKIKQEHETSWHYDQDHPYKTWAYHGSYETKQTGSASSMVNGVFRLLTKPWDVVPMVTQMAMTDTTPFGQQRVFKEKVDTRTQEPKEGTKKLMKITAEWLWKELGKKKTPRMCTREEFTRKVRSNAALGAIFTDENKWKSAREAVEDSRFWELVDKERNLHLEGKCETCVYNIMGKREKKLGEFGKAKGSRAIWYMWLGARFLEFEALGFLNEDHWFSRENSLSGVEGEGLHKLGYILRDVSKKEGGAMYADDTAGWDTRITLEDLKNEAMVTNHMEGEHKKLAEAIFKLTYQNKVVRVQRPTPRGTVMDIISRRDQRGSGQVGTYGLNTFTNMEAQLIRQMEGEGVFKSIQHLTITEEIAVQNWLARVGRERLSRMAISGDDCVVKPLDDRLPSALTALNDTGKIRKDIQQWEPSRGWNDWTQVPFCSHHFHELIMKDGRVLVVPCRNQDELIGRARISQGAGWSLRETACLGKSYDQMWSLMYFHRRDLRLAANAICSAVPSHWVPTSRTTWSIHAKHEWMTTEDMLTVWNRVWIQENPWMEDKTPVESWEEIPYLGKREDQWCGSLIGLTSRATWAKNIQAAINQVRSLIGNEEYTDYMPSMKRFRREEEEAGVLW
Cytochrome P450 2D6, sequence (P10635 whole entry): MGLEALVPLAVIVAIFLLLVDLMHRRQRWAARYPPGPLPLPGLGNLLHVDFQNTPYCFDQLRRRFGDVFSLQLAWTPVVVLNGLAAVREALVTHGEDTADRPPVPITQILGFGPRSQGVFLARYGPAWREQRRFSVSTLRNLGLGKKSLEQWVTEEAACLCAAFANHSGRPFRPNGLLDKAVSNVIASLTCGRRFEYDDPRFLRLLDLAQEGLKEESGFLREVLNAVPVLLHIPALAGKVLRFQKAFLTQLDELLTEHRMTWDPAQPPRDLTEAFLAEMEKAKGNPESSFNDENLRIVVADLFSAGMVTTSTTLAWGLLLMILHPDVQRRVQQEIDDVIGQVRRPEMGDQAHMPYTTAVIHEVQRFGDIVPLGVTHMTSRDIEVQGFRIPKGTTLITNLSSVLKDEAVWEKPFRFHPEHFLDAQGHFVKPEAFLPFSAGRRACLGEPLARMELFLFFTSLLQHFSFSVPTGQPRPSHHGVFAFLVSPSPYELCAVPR
Induced myeloid leukemia cell differentiation protein Mcl-1, sequence (Q07820 whole entry): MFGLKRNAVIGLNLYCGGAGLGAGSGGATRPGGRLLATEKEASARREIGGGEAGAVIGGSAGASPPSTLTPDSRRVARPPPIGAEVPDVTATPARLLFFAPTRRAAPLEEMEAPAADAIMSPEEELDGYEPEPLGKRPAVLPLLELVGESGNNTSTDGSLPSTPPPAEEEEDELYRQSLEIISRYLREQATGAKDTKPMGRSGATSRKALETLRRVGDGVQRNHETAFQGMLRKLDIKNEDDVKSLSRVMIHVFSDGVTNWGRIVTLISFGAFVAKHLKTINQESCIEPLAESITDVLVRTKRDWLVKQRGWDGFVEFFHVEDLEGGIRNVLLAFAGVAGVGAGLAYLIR
DNA (cytosine-5)-methyltransferase 1, sequence (P26358 whole entry): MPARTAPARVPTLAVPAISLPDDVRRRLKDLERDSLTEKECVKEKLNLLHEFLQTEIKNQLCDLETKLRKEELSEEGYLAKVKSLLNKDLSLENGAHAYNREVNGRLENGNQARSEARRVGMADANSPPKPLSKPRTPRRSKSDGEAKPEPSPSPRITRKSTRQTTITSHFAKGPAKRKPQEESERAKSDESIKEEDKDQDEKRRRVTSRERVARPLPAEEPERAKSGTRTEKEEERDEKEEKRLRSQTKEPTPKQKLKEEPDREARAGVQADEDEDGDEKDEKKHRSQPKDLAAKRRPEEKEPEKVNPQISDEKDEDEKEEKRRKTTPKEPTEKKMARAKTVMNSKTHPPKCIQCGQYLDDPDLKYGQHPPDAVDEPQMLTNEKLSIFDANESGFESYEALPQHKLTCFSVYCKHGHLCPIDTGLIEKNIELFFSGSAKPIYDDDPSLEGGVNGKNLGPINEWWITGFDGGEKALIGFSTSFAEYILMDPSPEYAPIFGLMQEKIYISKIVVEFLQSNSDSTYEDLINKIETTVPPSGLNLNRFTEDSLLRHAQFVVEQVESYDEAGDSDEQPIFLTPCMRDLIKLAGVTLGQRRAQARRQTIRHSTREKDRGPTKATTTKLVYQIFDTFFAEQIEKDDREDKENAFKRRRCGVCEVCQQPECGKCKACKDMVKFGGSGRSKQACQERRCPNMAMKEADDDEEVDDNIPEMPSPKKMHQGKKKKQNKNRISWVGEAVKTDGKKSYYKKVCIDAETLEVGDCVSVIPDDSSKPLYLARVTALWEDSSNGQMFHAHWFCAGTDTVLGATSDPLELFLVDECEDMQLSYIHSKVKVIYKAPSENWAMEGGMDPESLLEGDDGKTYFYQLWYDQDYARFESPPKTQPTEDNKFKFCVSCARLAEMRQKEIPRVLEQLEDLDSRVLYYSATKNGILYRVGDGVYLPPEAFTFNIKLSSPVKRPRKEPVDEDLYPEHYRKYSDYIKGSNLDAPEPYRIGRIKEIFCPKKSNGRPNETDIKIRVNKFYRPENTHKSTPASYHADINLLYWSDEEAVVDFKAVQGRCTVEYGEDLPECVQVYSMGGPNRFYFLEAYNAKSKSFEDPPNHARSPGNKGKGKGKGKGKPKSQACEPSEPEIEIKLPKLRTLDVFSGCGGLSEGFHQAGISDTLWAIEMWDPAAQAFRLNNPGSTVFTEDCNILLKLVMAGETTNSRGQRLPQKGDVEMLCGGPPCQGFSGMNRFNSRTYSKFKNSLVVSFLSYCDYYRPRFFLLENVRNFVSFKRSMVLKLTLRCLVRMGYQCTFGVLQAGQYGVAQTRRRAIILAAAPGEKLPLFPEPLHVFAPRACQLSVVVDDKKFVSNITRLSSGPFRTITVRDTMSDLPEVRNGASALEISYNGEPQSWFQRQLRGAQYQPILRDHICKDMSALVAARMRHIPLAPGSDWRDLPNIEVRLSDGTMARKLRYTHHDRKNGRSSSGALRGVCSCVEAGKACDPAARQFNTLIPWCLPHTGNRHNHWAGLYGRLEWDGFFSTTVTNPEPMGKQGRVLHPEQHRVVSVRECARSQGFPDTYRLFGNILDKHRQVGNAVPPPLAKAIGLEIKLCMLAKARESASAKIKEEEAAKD

With COCCN(C(=O)COC(=O)C12CC3CC(CC(Cl)(C3)C1)C2)c1c(N)n(Cc2ccccc2)c(=O)[nH]c1=O the AC50 [1] was 10.2 µM (active), the AC50 [2] was 1.44 µM (active) and the AC50 [3] was 4.61 µM (active). The AC50 [4] was 10.7 µM (active).

For O=C(CCN1C(=O)S/C(=C\c2ccccc2)C1=O)Nc1ccc(S(=O)(=O)Nc2nccs2)cc1, the AC50 (Cytochrome P450 1A2) was 31.6 µM (inconclusive), the AC50 (Cytochrome P450 2D6) was 6.31 µM (inconclusive) and the IC50 [5] was 7.24 µM (active). The IC50 (Genome polyprotein) was > 100 µM (active).

In the case of O=CC(O)C1OC(=O)C(O)C1O (stereo not drawn), the IC50 [6] is reported as 4.05 µM (active) and the IC50 [7] is reported as 14.4 µM (active).

With CCCCCCCCN1C(=O)[C@@H](CC(=O)NCCc2ccccc2OC)C[C@@]2(C(=O)OC)C1=C[C@H](C1CCCC1)O[C@@H]2C the IC50 [8] was 8.54 µM (active), the EC50 [9] was 3.22 µM (active) and the IC50 (cells [10]) was > 29.9 µM (inactive). For the same molecule, the EC50 (cells [11]) was > 29.9 µM (inactive).

For CC(C)CCN(N=O)[C@@H](Cc1ccccc1)CN(N=O)[C@@H](Cc1ccccc1)CN(C)N=O, the AC50 [1] was 6.6 µM (active), the AC50 [2] was 5.64 µM (active) and the AC50 [3] was 5.26 µM (active). For the same molecule, the AC50 [4] was 34.7 µM (active).
